From US8691183B2, “Means for the detection and treatment of prostate cells” (Eberhard-Karls-Universitaet Tuebingen Universitaetsklinikum, priority 2008, dated 2014)
Entries after “also recorded” stand apart in the source; their conditions may differ.

Legend:
[1] = system: LNCaP prostate carcinoma cells; assay: In-vitro MRT / MR relaxometry of cells in Eppendorf tubes; format: cell-based, human; details: for uptake / signal intensity of the cells in T1-weighted MRT images: 20 minutes incubation, washed, 130 μM
Description: (§1) For the MR relaxometry, all tumor cell lines were grown in 75 cm^2 culture flasks (Corning Costar, Bodenheim, Germany) (70% confluency). Accutase™ (PAA Laboratories, Pasching, Austria) was added to achieve detachment of the cells, which were harvested and subsequently aliquoted into Eppendorf tubes (6×10^6 cells per tube). The cells in the tubes were incubated with the DOTA-containing compounds (130 μM). After a 20 minutes incubation period at 37° C. in an atmosphere of 5% CO2, the cells were washed three times in PBS and centrifuged at 800 rpm for 5 minutes.
(§2) The in-vitro MRT was performed with a 3 Tesla-whole body MRT system (Magnetom TRIO, circular polarized wrist coil, Siemens, Erlangen, Germany)
(§3) Sagittal T1-weighted MR images were obtained using the following spin-echo sequence:
(§4) Repetition time (TR): 200 ms, echo time (TE): 7,4 ms, flip angle: 90°, averages: 1, concatenations: 2, measurements: 1, number of slices: 19, distance factor: 30%, slice thickness: 3 mm, field of view read: 180 mm/100%, resolution: 256/100%, voxel size: 0.7×0.7×3.0 mm, scan time: 1:48 min.
(§5) The T1 relaxation times were evaluated from signal intensities obtained by multiple spin-echo measurements:
(§6) Repetition time (TR): 20-8000 ms (50 different TR values), echo time (TE): 6.4 ms, flip angle: 90°, averages: 1, measurements: 1, number of slices: 1, slice thickness: 1 mm, field of view read: 120 mm/87.5%, resolution: 128/100%, voxel size: 0.9×0.9×1 mm.
(§7) The analysis and calculations were performed using a Matlab program (Math Works, Natick, Mass., USA). The T1 values were approximated by a three-parameter fit procedure. All signal curves were examined and found to be monoexponential. The investigations were performed in triplicate.

[2] = system: other tumor cell lines (non-prostate); assay: as above; format: cell-based, human; details: other carcinoma cells; incubation, washed three times with PBS
Description: as §1, §2, §3, §4, §5, §6, §7

[3] = system: LNCaP prostate carcinoma cells; assay: Confocal laser scanning microscopy (CLSM) of cellular uptake; format: cell-based, human; details: 20 minutes incubation, 10 μg/ml
Description: (§8) The cells were grown to 80% confluency at 37° C., 5% CO2 (vol/vol) in 4-well plates (NUNC, Wiesbaden, Germany) with about 300,000 cells per well.
(§9) U373 human glioma cells, human prostate carcinoma cells PC3 and LNCaP, human Jurkat lymphoma cells, and human colon carcinoma cells Colo205 were grown in RPMI1640 ready mix medium containing L-glutamine and 10% fetal bovine serum (FBS)-gold (PAA Laboratories, Pasching, Austria). U2OS human osteosarcoma cells and HeLa human cervix carcinoma cells were grown in high glucose Dulbeccos modified Eagle's medium containing GlutaMax™ and pyrovate and 10% FBS-gold. Healthy human prostate cells (CC2555, Lonza, Verviers, Belgium) were cultivated in prostate endothelial cell growth medium (PrEGM, Lonza, Verviers, Belgium).
(§10) The compounds 1, 2 and 4 were dissolved at 1 mg/ml in pure ethanol (Riedel de Haen, Sigma-Aldrich, Taufkirchen, Germany) and then diluted in the appropriate medium for the cells to 10 μg/ml of conjugate and 1% ethanol. The cells were incubated at 37° C. in an atmosphere of 5% CO2 for 20 minutes with the compounds. After this, the cells were rinsed three times with medium and then incubated with medium again. This experiment was also performed with free sulforhodamine B with a corresponding amount.
(§11) The confocal laser scanning microscopy was performed on an inverted LSM510 laser scanning microscope (Carl Zeiss) (objective: LD Achroplan 40×0.6, Plan Neofluar 20×0.50, 40×0.75). For the rhodamine fluorescence excitation the 543 nm beam of a helium-neon laser with suitable beam splitters and barrier filters were used. All measures were performed at least three times on living, non-fixed cells.

[4] = system: colon carcinoma cells (Colo205); assay: as above; format: cell-based, human; details: 20 minutes incubation, 10 μg/ml
Description: as §8, §9, §10, §11

[5] = system: non-prostate tumor cell lines; assay: Fluorescence activated cell sorting (FACS) of cellular uptake; format: cell-based, human; details: 20 minutes incubation
Description: (§12) For the fluorescence activated cell sorting (FACS), cells were grown in 75 cm^2 culture flasks (Corning Costar, Bodenheim, Germany) (80% confluency) under the same conditions as described for the confocal laser scanning microscopy. Accutase™ (PAA Laboratories, Pasching, Austria) was added to achieve detachment of the cells, which were harvested and subsequently alequoted into Eppendorf tubes (Eppendorf, Hamburg, Germany) (1×10^6 cells per tube). The cells were incubated for 20 minutes with the compounds 1, 2 and 4 (10 μg/ml in the appropriate medium with 1% ethanol) and the compound 10 (130 μM in the appropriate medium).
(§13) Afterwards, the cells were washed three times in PBS and centrifuged at 800 rpm for 5 minutes. Then 300 μl FACS buffer (D-PBS containing 1% parafomaldehyde) were added. The samples were measured immediately. Approximately 20,000 events were recorded per sample. The fluorescence excitation was achieved by an argon laser (488 nm). The fluorescence was detected using a 580-610 and a 560-680 nm band-pass filter. All investigations were performed in triplicate.
(§14) Mean rhodamine and fluorescein isothiocyanate fluorescence values of the samples were acquired using the WinMDI software (Joseph Trotter, Scripps Research Institute, San Diego, Calif., USA) and then statistically evaluated.

[6] = system: PC-3 prostate carcinoma cells; assay: as above; format: cell-based, human; details: 20 minutes incubation
Description: as §12, §13, §14

[7] = system: PC-3 prostate carcinoma cells; assay: In-vitro MRT / MR relaxometry of cells in Eppendorf tubes; format: cell-based, human; details: rank among cell lines
Description: as §1, §2, §3, §4, §5, §6, §7

[8] = system: healthy prostate cells (CC2555); assay: as above; format: cell-based, human; details: rank among cell lines
Description: as §1, §2, §3, §4, §5, §6, §7

[9] = system: osteosarcoma cells (U2OS); assay: Confocal laser scanning microscopy (CLSM) of cellular uptake; format: cell-based, human; details: 20 minutes incubation, 260 μM
Description: as §8, §9
The compound 10 was dissolved in culture medium (260 μM). Lys(FITC)-aminobourgeonal (compound 7) was dissolved in culture medium with 1% ethanol (260 μM). The cells were incubated for 20 minutes (compound 10) and for 2 days (compounds 7 and 10). This assay was also performed with free FITC. […]
as §11, with “All measures were performed at least three times on living, non-fixed cells.” left out

[10] = system: PC-3 prostate carcinoma cells; assay: as above; format: cell-based, human; details: 20 minutes incubation, 260 μM
Description: as §8, §9, §10
The compound 10 was dissolved in culture medium (260 μM). Lys(FITC)-aminobourgeonal (compound 7) was dissolved in culture medium with 1% ethanol (260 μM). The cells were incubated for 20 minutes (compound 10) and for 2 days (compounds 7 and 10). This assay was also performed with free FITC. After the incubation the cells were rinsed three times with medium and again incubated in medium. Propidium iodide (PI) (molecular probes, Eugene, Oreg., USA) was added to stain death cells.
as §11, with “All measures were performed at least three times on living, non-fixed cells.” left out

[11] = system: LNCaP prostate carcinoma cells; assay: Fluorescence activated cell sorting (FACS) of cellular uptake; format: cell-based, human; details: 20 minutes incubation, 130 μM
Description: as §12, §13, §14

[12] = system: healthy prostate cells (CC2555); assay: as above; format: cell-based, human; details: 20 minutes incubation, 130 μM
Description: as §12, §13, §14

[13] = system: human PC3 prostate carcinoma in the right thigh of a nude mouse; assay: Magnetic resonance tomography of nude mouse with implanted tumor; format: in vivo; details: 90 minutes after intravenous administration
Description: PC3 and LNCaP prostate tumor cells were grown to 80% confluency, detached with Accutase™ (PAA Laboratories, Pasching, Austria) and then harvested. The cells were washed with PBS three times and then drawn up into a 30 g Micro-Fine™ insulin syringe (Becton Dickinson, Franklin Lakes, N.J., USA). Approximately 5×10^5 cells per mouse were injected into the right thigh of a male CD1 Nu/Nu mouse (Charles River, WIGA, Sulzfeld, Germany). The tumor growth was monitored and after 10 to 14 days mice bearing tumors with 2-3 mm in diameter were treated with the conjugate. 1.5 mg of the compound 1 were dissolved in 300 μl PBS containing 20% ethanol and applied intraperitoneally. […] Frozen sections (5 μm thickness) were prepared (LD3000 Cryotom, Leica Biosystems GmbH, Nussloch, Germany) and the rhodamine staining was analyzed by confocal laser scanning
The magnetic resonance tomography (MRT) measurements were performed using a clinical 3-Tesla Siemens whole body MRT (Magnetom TRIO; Siemens, Erlangen, Germany) with the mice in prone position in a standard circular polarized wrist coil. The MRT protocol consisted of native and post-contrast T1 weighted axial images: slice thickness 2 mm, field of view read: 60 mm/7.5%, Voxel size: 0.2×0.2×2 mm, repetition time (TR): 800 ms, echo time (TE): 9.1 ms, flip angle: 90°, acquisitions: tions: 2, number of slices: 25, distance factor: 0, scan time 06:02 min. […]

[14] = system: seven human tumor cell lines and healthy human epithelial prostate cells (CC2555); assay: Confocal laser scanning microscopy (CLSM) of cellular uptake, all cell types; format: cell-based; details: corresponding amount of free dye, 20 minutes
Description: as §8, §9
The compounds 1, 2 and 4 were dissolved at 1 mg/ml in pure ethanol (Riedel de Haen, Sigma-Aldrich, Taufkirchen, Germany) and then diluted in the appropriate medium for the cells to 10 μg/ml of conjugate and 1% ethanol. The cells were incubated at 37° C. in an atmosphere of 5% CO2 for 20 minutes with the compounds. […]
as §11, with “All measures were performed at least three times on living, non-fixed cells.” left out

O=C([O-])CN1CCN(CC(=O)[O-])CCN(CC(=O)O)CCN(CC(=O)[O-])CC1.[Gd+3] [Gd-DOTA, reference compound]
uptake / signal intensity of the cells in T1-weighted MRT images ([1]; LNCaP): not taken up by the prostate carcinoma cells; also recorded: remain dark
signal intensity of the cells in T1-weighted MRT images [2]: remain dark

CCN(CC)c1ccc2c(-c3ccc(S(=O)(=O)NCCC(=O)Nc4ccc(/C=C\C=O)cc4)cc3S(=O)(=O)[O-])c3ccc(=[N+](CC)CC)cc-3oc2c1 [compound 2, Sulforhodamine-Sulfonamido βAla-Aminocinnamaldehyde]
uptake into the cells (rhodamine staining, CLSM) [3]: significantly stained
uptake into the cells (rhodamine staining, CLSM) [4]: basically unstained

CCN(CC)c1ccc2c(-c3ccc(S(=O)(=O)NCCC(=O)NCCCCCCCC=O)cc3S(=O)(=O)O)c3ccc(=[N+](CC)CC)cc-3oc2c1 [compound 4, sulforhodamine-sulfonamido βala-aminooctanal]
fluorescence (rhodamine, FACS) ([5]; remaining carcinoma cell lines, 10 μg/ml): only show little staining
fluorescence (rhodamine, FACS) ([6]; PC3, 10 μg/ml): highest fluorescence

O=CCCCCCCCCCCNC(=O)C(CCCCN=S=C=Nc1ccc2c(c1)C(=O)OC21c2ccc(O)cc2Oc2cc(O)ccc21)NC(=O)C[N+]12CC[N+]3(CC(=O)O)CCN(CC(=O)O)CC[N+](CC(=O)O)(CC1)[Gd]32 (centres unmarked) [compound 10, Gd-DOTA-Lys(FITC) aminoundecylic aldehyde]
uptake / signal intensity of the cells in T1-weighted MRT images ([1]; LNCaP): uptaken into the cytoplasm of the prostate carcinoma cells; also recorded: increase of the signal intensity
difference of the T1-time (before minus after the incubation) ([1]; LNCaP, rank among cell lines): strongest reduction of the T1-time
T1-time reduction in comparison to simple Gd-DOTA ([1]; prostate carcinoma cells (LNCaP)): significantly stronger T1-time reduction
difference of the T1-time (before minus after the incubation) [7]: strongest reduction of the T1-time
signal intensity of the cells in T1-weighted MRT images [2]: only with the LNCaP-prostate carcinoma cells
difference of the T1-time (before minus after the incubation) [8]: strongest reduction of the T1-time
uptake into the cells (FITC staining, CLSM) [9]: not into the osteosarcoma cells
uptake into the cells (FITC staining, CLSM) [10]: very well uptaken into the cytoplasm
staining (FITC fluorescence, FACS) [11]: stained
staining (FITC fluorescence, FACS) ([5]; non-prostate tumor cell lines, 130 μM): not the non-prostate tumor cell lines
staining (FITC fluorescence, FACS) ([6]; PC-3, 130 μM): stained
staining (FITC fluorescence, FACS) [12]: stained
MRT staining of non-prostate carcinoma cells [13]: remain unstained
MRT signal of the prostate carcinoma cells ([13]; 10 days after implantation): increased signal intensity

fluorescein isothiocyanate [FITC, reference compound]
uptake into the cells (FITC staining, CLSM) [9]: not uptaken by the cells
uptake into the cells (FITC staining, CLSM) [10]: not uptaken by the cells

sulforhodamine B
uptake by any cell type (rhodamine staining, CLSM) [14]: not taken up by any cell types
